These results are taken from patent publication US20110152269A1, “PROCESS FOR TREATING ANIMAL HABITATS” (H&S Chemical Company, Inc., priority 2001, published 2011).

A short description of assay [1]: Ammonia concentration in treated poultry houses during grow out. Conditions: houses and bedding sprayed with 200 ppm aqueous solution before placement of birds; two houses of 26,000 birds; wood chip bedding; 57 day grow out. The method, then:
Two poultry houses containing 26,000 birds each were treated, by spraying the houses and bedding contained therein, with an aqueous solution of a product sold under the trademark PLT, at a concentration of 200 ppm. Treatment was effected prior to placement of the birds in the poultry houses. The bedding utilized was popular wood chips. After 57 days the grow out was complete. During the grow out periods the concentration of ammonia in the poultry houses varied between 30 and 70 ppm. […] Two poultry houses containing 26,000 birds each were treated by spraying the houses and bedding contained therein with an aqueous solution of TCM, at a concentration of 200 ppm. Treatment was effected prior to placement of the birds in the poultry houses. The bedding utilized was popular wood chips. After 57 days the grow out was complete. During the grow out the concentration of ammonia in the poultry houses never exceeded 20 ppm.

Assay [2] has as its system salmonella. Kind of assay: Monitoring for salmonella in treated poultry houses during grow out. The note with it: houses and bedding sprayed with 200 ppm aqueous solution before placement of birds; two houses of 25,000 birds; wood chip bedding; 56 day grow out. The procedure:
Two poultry houses containing 25,000 birds each were treated by spraying the houses and bedding contained therein with an aqueous solution of TCM, at a concentration of 200 ppm. Treatment was effected prior to placement of the birds in the poultry house. The bedding utilized was popular wood chips. After 56 days the grow out was complete. During the grow out the presence of salmonella was monitored.
An untreated poultry house containing 25,000 birds was monitored during a 56 day grow out for the presence of salmonella. The bedding utilized was popular wood chips. After 56 days the grow out was complete. During the grow out the poultry house tested positive for salmonella.

Take trichloromelamine [TCM]: the “concentration of ammonia in the poultry houses” value in assay [1] was at most 20 ppm. Moreover, in assay [2], the “presence of salmonella during the grow out” value was “no salmonella was detected”.
